Measured values: patent US12590065B2, “Levorphanol prodrugs and processes for making and using them” (Zevra Therapeutics, Inc., priority 2017, dated 2026)

Test: stability of the deprotected derivative in aqueous solution
Assay type: physicochemical
Conditions: observed after Boc deprotection with 4N HCl in dioxane
Protocol: A solution of 38 in 4N HCl in dioxane (5 mL) was stirred at room temperature for 2 hours. Solvent was evaporated under reduced pressure, the residue was co-evaporated with IPAc and dried to give 40 in quantitative yield. The deprotected derivative 40 was not stable in aqueous solution. Compound 40 was converted to the acetyl derivative 42.

CC(C)[C@H](N)C(=O)OCOC(=O)Oc1ccc2c(c1)[C@@]13CCCC[C@H]1[C@@H](C2)N(C)CC3 [Compound 40, 3-(Val-OCH2OC(O))-Levorphanol]
stability in aqueous solution: not stable
